pIC50: −log10 of the molar value.
What was measured:
[1] = target: full-length MALT1 protein (Strep-MALT1(1-824)-His) (Homo sapiens (Human), UniProt Q9UDY8); experiment: MALT1 Biochemical Protease Assay; conditions: read-out: MALT1_Biochemical activity (Ac-LRSR-amc) IC50; 10 nM FL MALT1, 200 μM Ac-LRSR-AMC, 50 min pre-incubation, 4 h at RT
Excerpt: From this an ICso value (inhibitory concentration causing 50% inhibition) can be obtained.

[2] = tested on: IL6 secretion, OCI-LY3 cells; experiment: Human IL6 Mesoscale assay (OCI-LY3); format: cell-based; conditions: 24 h incubation
[3] = tested on: IL10 secretion, OCI-LY3 cells; experiment: Human IL10 Mesoscale assay (OCI-LY3); format: cell-based; conditions: 24 h incubation

full-length MALT1 protein (Strep-MALT1(1-824)-His), sequence (Q9UDY8 whole entry): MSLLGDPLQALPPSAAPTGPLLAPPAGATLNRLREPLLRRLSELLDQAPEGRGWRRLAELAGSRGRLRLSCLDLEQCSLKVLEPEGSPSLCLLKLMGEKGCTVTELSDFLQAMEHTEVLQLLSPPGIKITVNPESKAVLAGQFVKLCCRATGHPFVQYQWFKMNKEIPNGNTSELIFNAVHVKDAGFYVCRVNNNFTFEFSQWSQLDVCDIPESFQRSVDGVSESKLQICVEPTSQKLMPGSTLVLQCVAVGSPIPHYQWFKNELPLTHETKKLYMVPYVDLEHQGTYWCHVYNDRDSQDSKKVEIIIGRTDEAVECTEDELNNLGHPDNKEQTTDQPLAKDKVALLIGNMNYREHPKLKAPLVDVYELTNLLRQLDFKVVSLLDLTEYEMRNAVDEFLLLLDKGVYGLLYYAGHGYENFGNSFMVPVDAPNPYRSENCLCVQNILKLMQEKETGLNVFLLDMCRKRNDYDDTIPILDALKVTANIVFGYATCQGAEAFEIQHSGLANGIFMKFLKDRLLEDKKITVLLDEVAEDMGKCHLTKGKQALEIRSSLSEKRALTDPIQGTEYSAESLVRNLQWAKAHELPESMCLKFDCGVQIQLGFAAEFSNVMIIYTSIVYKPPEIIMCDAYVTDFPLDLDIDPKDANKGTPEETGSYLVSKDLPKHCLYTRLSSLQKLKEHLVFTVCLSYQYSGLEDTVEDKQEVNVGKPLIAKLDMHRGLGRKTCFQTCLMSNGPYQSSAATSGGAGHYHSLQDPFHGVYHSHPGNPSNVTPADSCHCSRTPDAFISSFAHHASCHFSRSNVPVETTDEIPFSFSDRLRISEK

| Compound | pIC50 [1] | pIC50 [2] | pIC50 [3] |
| --- | --- | --- | --- |
| CS(=N)(=O)c1ncc(NC(=O)c2cnn(-c3ccc(F)c4nccn34)c2C(F)(F)F)cc1C(F)(F)F (stereo not shown) [Cpd 31, 1-(8-fluoroimidazo[1,2-a]pyridin-5-yl)-N-(6-(S-methylsulfonimidoyl)-5-(trifluoromethyl)pyridin-3-yl)-5-(trifluoromethyl)-1H-pyrazole-4-carboxamide] | 5.50 |  |  |
| O=C(Nc1cnc([C@H]2CCCO2)c(Cl)c1)c1cnn(-c2ccc(Cl)c3nccn23)c1C(F)(F)F (single isomer, unassigned) [Cpd 18, (*R)—N-(5-chloro-6-(tetrahydrofuran-2-yl)pyridin-3-yl)-1-(8-chloroimidazo[1,2-a]pyridin-5-yl)-5-(trifluoromethyl)-1H-pyrazole-4-carboxamide] | 5.66 |  |  |
| CS(C)(=O)=Nc1ncc(NC(=O)c2cnn(-c3ccc(F)c4nccn34)c2C(F)(F)F)cc1C(F)(F)F [Cpd 30, N-(6-((dimethyl(oxo)-λ^6-sulfanylidene)amino)-5-(trifluoromethyl)pyridin-3-yl)-1-(8-fluoroimidazo[1,2-a]pyridin-5-yl)-5-(trifluoromethyl)-1H-pyrazole-4-carboxamide] | 6.08 |  |  |
| CO[C@@H](C)c1ncc(NC(=O)c2cnn(-c3ccc(Cl)n4nccc34)c2C(F)(F)F)cc1Cl (single isomer, unassigned) [Cpd 27, (*S)—N-(5-chloro-6-(1-methoxyethyl)pyridin-3-yl)-1-(7-chloropyrazolo[1,5-a]pyridin-4-yl)-5-(trifluoromethyl)-1H-pyrazole-4-carboxamide] | 5.99 |  |  |
| O=C(Nc1cnc([C@H]2CCCO2)c(Cl)c1)c1cnn(-c2ccc(Cl)n3nccc23)c1C(F)(F)F (single isomer, unassigned) [Cpd 22, (*R)—N-(5-chloro-6-(tetrahydrofuran-2-yl)pyridin-3-yl)-1-(7-chloropyrazolo[1,5-a]pyridin-4-yl)-5-(trifluoromethyl)-1H-pyrazole-4-carboxamide] | 6.01 |  |  |
| CO[C@H](C)c1ncc(NC(=O)c2cnn(-c3ccc(F)c4nccn34)c2C(F)(F)F)cc1Cl (single isomer, unassigned) [Cpd 19, (*R)—N-(5-chloro-6-(1-methoxyethyl)pyridin-3-yl)-1-(8-fluoroimidazo[1,2-a]pyridin-5-yl)-5-(trifluoromethyl)-1H-pyrazole-4-carboxamide] | 5.55 |  |  |
| CO[C@H](C)c1ncc(NC(=O)c2cnn(-c3ccc(Cl)n4nccc34)c2C(F)(F)F)cc1Cl (single isomer, unassigned) [Cpd 28, (*R)—N-(5-chloro-6-(1-methoxyethyl)pyridin-3-yl)-1-(7-chloropyrazolo[1,5-a]pyridin-4-yl)-5-(trifluoromethyl)-1H-pyrazole-4-carboxamide] | 5.88 |  |  |
| CO[C@@H](C)c1ncc(NC(=O)c2cnn(-c3ccc(F)c4nccn34)c2C(F)(F)F)cc1Cl (single isomer, unassigned) [Cpd 17, (*S)—N-(5-chloro-6-(1-methoxyethyl)pyridin-3-yl)-1-(8-fluoroimidazo[1,2-a]pyridin-5-yl)-5-(trifluoromethyl)-1H-pyrazole-4-carboxamide] | 5.63 |  |  |
| Cc1cc(NC(=O)c2cnn(-c3ccc(F)c4nccn34)c2C(F)(F)F)cnc1N=S(C)(C)=O [Cpd 29, N-(6-((dimethyl(oxo)-λ^6-sulfanylidene)amino)-5-methylpyridin-3-yl)-1-(8-fluoroimidazo[1,2-a]pyridin-5-yl)-5-(trifluoromethyl)-1H-pyrazole-4-carboxamide] | 5.22 |  |  |
| CS(C)(=O)=Nc1ncc(NC(=O)c2cnn(-c3ccc(F)c4nccn34)c2C(F)(F)F)cc1Cl [Cpd 33, N-(5-chloro-6-((dimethyl(oxo)-λ^6-sulfanylidene)amino)pyridin-3-yl)-1-(8-fluoroimidazo[1,2-a]pyridin-5-yl)-5-(trifluoromethyl)-1H-pyrazole-4-carboxamide] | 6.01 |  |  |
| CS(C)(=O)=Nc1ncc(NC(=O)c2cnn(-c3ccc(F)c4nccn34)c2C(F)(F)F)cc1F [Cpd 32, N-(6-((dimethyl(oxo)-λ^6-sulfanylidene)amino)-5-fluoropyridin-3-yl)-1-(8-fluoroimidazo[1,2-a]pyridin-5-yl)-5-(trifluoromethyl)-1H-pyrazole-4-carboxamide] | 5.09 |  |  |

Stronger by pIC50 [1], values ahead:

| pIC50 [1] | pIC50 [2] | pIC50 [3] | Compound |
| --- | --- | --- | --- |
| 6.25 |  |  | CO[C@H](C)c1ncc(NC(=O)c2cnn(-c3ccc(C#N)n4nccc34)c2C(F)(F)F)cc1Cl (single isomer, unassigned) [Cpd 26, (*R)—N-(5-chloro-6-(1-methoxyethyl)pyridin-3-yl)-1-(7-cyanopyrazolo[1,5-a]pyridin-4-yl)-5-(trifluoromethyl)-1H-pyrazole-4-carboxamide] |
| 6.34 |  |  | CS(=O)(=O)c1c(C(=O)Nc2cnc(-n3nccn3)c(Cl)c2)cnn1-c1ccc(F)c2nccn12 [Cpd 8, N-(5-chloro-6-(2H-1,2,3-triazol-2-yl)pyridin-3-yl)-1-(8-fluoroimidazo[1,2-a]pyridin-5-yl)-5-(methylsulfonyl)-1H-pyrazole-4-carboxamide] |
| 6.34 |  |  | CO[C@@H](C)c1ncc(NC(=O)c2cnn(-c3ccc(C#N)n4nccc34)c2C(F)(F)F)cc1Cl (single isomer, unassigned) [Cpd 25, (*S)—N-(5-chloro-6-(1-methoxyethyl)pyridin-3-yl)-1-(7-cyanopyrazolo[1,5-a]pyridin-4-yl)-5-(trifluoromethyl)-1H-pyrazole-4-carboxamide] |
| 6.45 |  |  | O=C(Nc1cnc([C@@H]2CCCO2)c(Cl)c1)c1cnn(-c2ccc(Cl)c3nccn23)c1C(F)(F)F (single isomer, unassigned) [Cpd 20, (*S)—N-(5-chloro-6-(tetrahydrofuran-2-yl)pyridin-3-yl)-1-(8-chloroimidazo[1,2-a]pyridin-5-yl)-5-(trifluoromethyl)-1H-pyrazole-4-carboxamide] |
| 6.60 |  |  | N#Cc1ccc(-n2ncc(C(=O)Nc3cnc([C@H]4CCCO4)c(Cl)c3)c2C(F)(F)F)c2ccnn12 (single isomer, unassigned) [Cpd 24, (*R)—N-(5-chloro-6-(tetrahydrofuran-2-yl)pyridin-3-yl)-1-(7-cyanopyrazolo[1,5-a]pyridin-4-yl)-5-(trifluoromethyl)-1H-pyrazole-4-carboxamide] |
| 6.60 | 6.82 | 6.94 | O=C(Nc1cnc(-n2cccn2)c(Cl)c1)c1cnn(-c2ccc(F)c3nccn23)c1C(F)(F)F [Cpd 3, N-(5-chloro-6-(1H-pyrazol-1-yl)pyridin-3-yl)-1-(8-fluoroimidazo[1,2-a]pyridin-5-yl)-5-(trifluoromethyl)-1H-pyrazole-4-carboxamide] |
| 7.05 | 6.86 | 7.19 | N#Cc1ccc(-n2ncc(C(=O)Nc3ccnc(C(F)(F)F)c3)c2C(F)(F)F)c2ccnn12 [Cpd 11, 1-(7-cyanopyrazolo[1,5-a]pyridin-4-yl)-5-(trifluoromethyl)-N-(2-(trifluoromethyl)pyridin-4-yl)-1H-pyrazole-4-carboxamide] |
| 7.60 | 7.38 | 7.39 | NC(=O)c1ccc(-n2ncc(C(=O)Nc3cnc(-n4nccn4)c(Cl)c3)c2C(F)(F)F)c2ccnn12 [Cpd 16, 4-(4-((5-chloro-6-(2H-1,2,3-triazol-2-yl)pyridin-3-yl)carbamoyl)-5-(trifluoromethyl)-1H-pyrazol-1-yl)pyrazolo[1,5-a]pyridine-7-carboxamide] |

From patent publication US10888550B2, “Pyrazole derivatives as MALT1 inhibitors” (Janssen Pharmaceutica NV, priority 2018, dated 2021)
